According to patent US20240158393A1, “PYRIDONE COMPOUNDS AND METHODS OF USE” (Exelixis, Inc., priority 2021, published 2024):
Each block holds one compound with its values, some of them ahead of it.

Columns and labels:
Human Met = target: T1, Human Met (Homo sapiens, UniProt P08581); test: Human Met kinase assay (33P radiometric / HTRF KinEase); format: biochemical; conditions: protocols of Examples D-1 and/or D-2; read-out: c-Met IC50
T1 construct: Human MET (residues 956-1390)
Procedure: (§1) Kinase activity and compound inhibition were investigated using the ^33P-Phosphoryl transfer radiometric kinase assay, performed using the KinaseProfiler™ service of Eurofins Pharma Discovery Services UK Limited. Dose-response experiments were performed using nine compound concentrations in a 96-well microtiter plate. For each assay, all compounds were prepared to a 50× final assay concentration (50 μM) in 100% DMSO, then diluted in a half-log series, with the final top concentration at 1 μM. This working stock of the compound was added to the assay well as the first component in the reaction, followed by the remaining components as detailed in the following assay protocols below. The positive control wells (100% kinase activity) contain all components of the reaction including 2% DMSO (control for solvent effects), except the compound of interest. Blank wells contain all components of the reaction, with the reference inhibitor, staurosporine. This reference compound was used to abolish kinase activity and generated the 0% kinase activity base-line. IC50 values were calculated by nonlinear regression analysis using the sigmoidal dose-response (variable slope) curve fit on XLFit version 5.3 (ID Business Solutions).
(§2) Kinase activity and compound inhibition were also investigated using the HTRF® KinEase assay (Cisbio Cat #62TKOPEB) per manufacturer's instructions. In short, compounds were delivered in 300 nL volumes at 10 different concentrations in DMSO (3% final) to empty 384-well assay plates (Corning cat #3824). A mixture of enzyme, 1 μM biotinylated peptide substrate, and buffer in 10 μL volume was added. The assay was started upon the addition of ATP (at Km). The 10 μL reaction was incubated at room temperature. The reaction was stopped upon the addition of detection buffer containing streptavidin-XL665 (5 μL) and TK antibody-Eu3+(5 μL). After a 60 min incubation at room temperature, the fluorescence at 665 nm and 620 nm was read on an Envision microplate reader (Perkin Elmer).
(§3) Kinase activity normalized to DMSO (100% activity) and reference compound at 1 μM and (0% activity) was calculated using the fluorescence ratio […]. IC50 values were calculated by nonlinear regression analysis using a 4-parameter logistic curve fit in ActivityBase XE (IDBS).
(§4) Example D-1: Human Met (residues R974-S1390 with A1209G and V1290L, 3.4 nM) was incubated with 8 mM MOPS pH 7.0, 0.2 mM EDTA, 250 μM KKKGQEEEYVFIE (SEQ ID NO:3), 1 mM sodium orthovanadate, 5 mM sodium-6-glycerophosphate, 10 mM magnesium acetate, and 10 μM [γ-^33P-ATP]. The reaction was initiated by the addition of the Mg/ATP mix. After incubation for 40 minutes at room temperature, the reaction was stopped by the addition of phosphoric acid to a concentration of 0.5%. A reaction aliquot of 10 μL was then spotted onto a P30 filtermat and washed four times for 4 minutes in 0.425% phosphoric acid and once in methanol prior to drying and scintillation counting. Incorporated ^33P was measured using the Wallac Microbeta scintillation counter (Perkin Elmer).
(§5) Example D-2: Human MET (residues 956-1390; CarnaBio, 0.1 ng/well) was also incubated with enzymatic buffer (Cisbio) supplemented with 5 mM MgCl2, 1 mM DTT and 1 mM MnCl2. The mixture was added to the pre-plated compounds. The reaction was initiated upon addition of ATP at Km (3.0 μM). The reaction was incubated at room temperature for 40 min and stopped upon the addition of SA-XL665 and TK-antibody both diluted in EDTA-containing kinase detection buffer (Cisbio). The kinase activity was calculated as stated above and the IC50 values were reported.

Human KDR = target: T2, Human KDR (Homo sapiens, UniProt P35968); test: Human KDR kinase assay (33P radiometric / HTRF KinEase); format: biochemical; conditions: protocols of Examples B-1 and/or B-2
T2 construct: Human KDR (residues K790-V1356, 55 nM); purchased Eurofins Pharma Discovery Services UK Limited (KinaseProfiler, B-1) and/or CarnaBio (B-2)
Procedure: as §1, §2, §3
as §4, with “B-1:” for “D-1:”, “KDR” for “Met”, “K790-V1356, 55” for “R974-S1390 with A1209G and V1290L, 3.4”, “0.33 mg/mL myelin basic protein,” for “250 μM KKKGQEEEYVFIE (SEQ ID NO:3), 1 mM sodium orthovanadate, 5 mM sodium-6-glycerophosphate,”
as §5, with “B-2:” for “D-2:”, “KDR” for “MET”, “790-1356;” for “956-1390;”, “MnCl2,” for “DTT”, “DTT.” for “MnCl2.”, “(4.0” for “(3.0”

T1 sequence (P08581 974-1390 limits assumed): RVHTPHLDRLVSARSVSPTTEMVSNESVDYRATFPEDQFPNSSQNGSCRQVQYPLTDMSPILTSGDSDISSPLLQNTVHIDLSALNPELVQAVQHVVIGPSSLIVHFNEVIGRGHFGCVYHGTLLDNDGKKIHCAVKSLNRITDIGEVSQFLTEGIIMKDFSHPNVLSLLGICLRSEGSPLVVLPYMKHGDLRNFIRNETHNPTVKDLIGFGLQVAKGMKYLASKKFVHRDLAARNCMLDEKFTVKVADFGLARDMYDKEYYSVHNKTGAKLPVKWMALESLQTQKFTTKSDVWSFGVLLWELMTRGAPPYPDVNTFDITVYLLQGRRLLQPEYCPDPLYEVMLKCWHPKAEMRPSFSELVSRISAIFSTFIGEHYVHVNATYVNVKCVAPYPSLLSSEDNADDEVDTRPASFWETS
T2 sequence (P35968 790-1356): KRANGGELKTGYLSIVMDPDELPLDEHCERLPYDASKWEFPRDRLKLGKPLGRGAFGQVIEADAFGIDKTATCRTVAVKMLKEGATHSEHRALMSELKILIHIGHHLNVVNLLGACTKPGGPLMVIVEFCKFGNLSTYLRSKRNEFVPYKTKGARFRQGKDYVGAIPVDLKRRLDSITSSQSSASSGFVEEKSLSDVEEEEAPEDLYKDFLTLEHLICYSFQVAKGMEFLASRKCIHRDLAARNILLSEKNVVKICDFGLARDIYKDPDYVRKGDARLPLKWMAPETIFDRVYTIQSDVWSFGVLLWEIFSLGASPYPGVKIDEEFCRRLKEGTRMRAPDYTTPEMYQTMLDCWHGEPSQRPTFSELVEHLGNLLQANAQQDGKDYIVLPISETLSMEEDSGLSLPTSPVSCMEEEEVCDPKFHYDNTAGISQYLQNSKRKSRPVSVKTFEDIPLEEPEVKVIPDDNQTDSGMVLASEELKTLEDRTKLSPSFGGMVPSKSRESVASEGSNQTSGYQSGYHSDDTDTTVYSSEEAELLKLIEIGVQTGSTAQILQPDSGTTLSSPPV

Compound: COCCOc1cc2nccc(Oc3ccc(NC(=O)c4cnc(C)c(/C=C/C5CCCC5)c4O)cc3F)c2nc1OC [Compound 36, 5-[(E)-2-Cyclopentylethenyl]-N-[3-fluoro-4-[[6-methoxy-7-(2-methoxyethoxy)-1,5-naphthyridin-4-yl]oxy]phenyl]-4-hydroxy-6-methylpyridine-3-carboxamide]
- IC50 (Human Met): ≤ 100 nM
- IC50 (Human KDR): ≤ 100 nM

Compound: COc1cnc2c(Oc3ccc(NC(=O)c4cn(C)c(C)c(C5=CCOCC5)c4=O)cc3F)ccnc2c1 [Compound 12, 5-(3,6-Dihydro-2H-pyran-4-yl)-N-[3-fluoro-4-[(7-methoxy-1,5-naphthyridin-4-yl)oxy]phenyl]-1,6-dimethyl-4-oxopyridine-3-carboxamide]
- IC50 (Human Met): ≤ 100 nM
- IC50 (Human KDR): > 300 nM

Compound: COc1cc2nccc(Oc3cc(F)c(NC(=O)c4c(C)n(C)c(C)c(C5CC5)c4=O)cc3F)c2nc1OC [Compound 47, 5-Cyclopropyl-N-[4-[(6,7-dimethoxy-1,5-naphthyridin-4-yl)oxy]-2,5-difluorophenyl]-1,2,6-trimethyl-4-oxopyridine-3-carboxamide]
- IC50 (Human Met): > 300 nM
- IC50 (Human KDR): > 300 nM

Compound: COCCOc1cc2nccc(Oc3ccc(NC(=O)c4c(O)c(C5=CCOCC5)c(C)[n+](C)c4C)cc3F)c2nc1OC [Compound 44, 5-(3,6-Dihydro-2H-pyran-4-yl)-N-[3-fluoro-4-[[6-methoxy-7-(2-methoxyethoxy)-1,5-naphthyridin-4-yl]oxy]phenyl]-1,2,6-trimethyl-4-oxopyridine-3-carboxamide]
- IC50 (Human Met): ≤ 100 nM
- IC50 (Human KDR): 100 to 300 nM

Compound: COc1cc2nccc(Oc3ccc(NC(=O)c4c5n(cc(C6=CCOCC6)c4=O)CCOC5)cc3)c2nc1OC [Compound G1-8, 7-(3,6-Dihydro-2H-pyran-4-yl)-N-[4-[(6,7-dimethoxy-1,5-naphthyridin-4-yl)oxy]phenyl]-8-oxo-3,4-dihydro-1H-pyrido[2,1-c][1,4]oxazine-9-carboxamide]
- IC50 (Human Met): > 300 nM
- IC50 (Human KDR): > 300 nM

Compound: COc1cc2nccc(Oc3ccc(NC(=O)c4c(C)ccn(C(C)C)c4=O)cc3)c2nc1OC [Compound 39, N-[4-[(6,7-Dimethoxy-1,5-naphthyridin-4-yl)oxy]phenyl]-4-methyl-2-oxo-1-propan-2-ylpyridine-3-carboxamide]
- IC50 (Human Met): > 300 nM
- IC50 (Human KDR): > 300 nM

Compound: C=C(C)n1c(C)cc(C)c(C(=O)Nc2ccc(Oc3ccnc4cc(OC)cnc34)c(F)c2)c1=O [Compound 21, N-[3-Fluoro-4-[(7-methoxy-1,5-naphthyridin-4-yl)oxy]phenyl]-4,6-dimethyl-2-oxo-1-prop-1-en-2-ylpyridine-3-carboxamide]
- IC50 (Human Met): ≤ 100 nM
- IC50 (Human KDR): 100 to 300 nM

Compound: COc1cnc2c(Oc3ccc(NC(=O)c4cnc(C)c(C5=CCOCC5)c4O)cc3F)ccnc2c1 [Compound 1-4, 5-(3,6-Dihydro-2H-pyran-4-yl)-N-[3-fluoro-4-[(7-methoxy-1,5-naphthyridin-4-yl)oxy]phenyl]-4-hydroxy-6-methylpyridine-3-carboxamide]
- IC50 (Human Met): ≤ 100 nM
- IC50 (Human KDR): ≤ 100 nM

Now from value to compound:

- IC50 (Human Met): > 300 nM
- IC50 (Human KDR): ≤ 100 nM
Compound: COc1cc2nccc(Oc3ccc(NC(=O)c4cnc(C)c(/C=C/C5CCCC5)c4O)cc3F)c2nc1OC [Compound 25, 5-[(E)-2-Cyclopentylethenyl]-N-[4-[(6,7-dimethoxy-1,5-naphthyridin-4-yl)oxy]-3-fluorophenyl]-4-hydroxy-6-methylpyridine-3-carboxamide]

- IC50 (Human Met): > 300 nM
- IC50 (Human KDR): ≤ 100 nM
Compound: COc1cc2nccc(Oc3ccc(NC(=O)c4c(C)nc(C)c(C(=O)NC5CC5)c4O)cc3F)c2nc1OC [Compound 98, 5-N-Cyclopropyl-3-N-[4-[(6,7-dimethoxy-1,5-naphthyridin-4-yl)oxy]-3-fluorophenyl]-4-hydroxy-2,6-dimethylpyridine-3,5-dicarboxamide]

- IC50 (Human Met): ≤ 100 nM
- IC50 (Human KDR): ≤ 100 nM
Compound: COc1cc2nccc(Oc3ccc(NC(=O)c4c(C)nc(C)c(C(=O)N(C)C)c4O)cc3F)c2nc1OC [Compound 93, 3-N-[4-[(6,7-Dimethoxy-1,5-naphthyridin-4-yl)oxy]-3-fluorophenyl]-4-hydroxy-5-N,5-N,2,6-tetramethylpyridine-3,5-dicarboxamide]

- IC50 (Human Met): ≤ 100 nM
- IC50 (Human KDR): ≤ 100 nM
Compound: COc1cc2nccc(Oc3ccc(NC(=O)c4cnc(C)c(C5=CCOCC5)c4O)cc3F)c2nc1OC [Compound 1-3, 5-(3,6-Dihydro-2H-pyran-4-yl)-N-[4-[(6,7-dimethoxy-1,5-naphthyridin-4-yl)oxy]-3-fluorophenyl]-4-hydroxy-6-methylpyridine-3-carboxamide]

- IC50 (Human Met): ≤ 100 nM
- IC50 (Human KDR): ≤ 100 nM
Compound: COc1cc2nccc(Oc3ccc(NC(=O)c4c(C)nc(C)c(C5=CCCCC5)c4O)cc3F)c2nc1OC [Compound 2-3, 5-(Cyclohexen-1-yl)-N-[4-[(6,7-dimethoxy-1,5-naphthyridin-4-yl)oxy]-3-fluorophenyl]-4-hydroxy-2,6-dimethylpyridine-3-carboxamide]

- IC50 (Human Met): ≤ 100 nM
- IC50 (Human KDR): ≤ 100 nM
Compound: COc1cc2nccc(Oc3ccc(NC(=O)c4c(C)nc(C)c(C(C)C)c4O)cc3)c2nc1OC [Compound 9, N-[4-[(6,7-Dimethoxy-1,5-naphthyridin-4-yl)oxy]phenyl]-4-hydroxy-2,6-dimethyl-5-propan-2-ylpyridine-3-carboxamide]

- IC50 (Human Met): ≤ 100 nM
- IC50 (Human KDR): ≤ 100 nM
Compound: COCCOc1cc2nccc(Oc3ccc(NC(=O)c4c(C)nc(C)c(C5=CCCC5)c4O)cc3F)c2nc1OC [Compound 41, 5-(Cyclopenten-1-yl)-N-[3-fluoro-4-[[6-methoxy-7-(2-methoxyethoxy)-1,5-naphthyridin-4-yl]oxy]phenyl]-4-hydroxy-2,6-dimethylpyridine-3-carboxamide]

- IC50 (Human Met): > 300 nM
- IC50 (Human KDR): > 300 nM
Compound: COc1cc2nccc(Oc3ccc(NC(=O)c4c(C)n(C)c(C)c(/C=C/C5CC5)c4=O)cc3F)c2nc1OC [Compound 50, 5-[(E)-2-Cyclopropylethenyl]-N-[4-[(6,7-dimethoxy-1,5-naphthyridin-4-yl)oxy]-3-fluorophenyl]-1,2,6-trimethyl-4-oxopyridine-3-carboxamide]

- IC50 (Human Met): ≤ 100 nM
- IC50 (Human KDR): ≤ 100 nM
Compound: COc1cc2nccc(Oc3ccc(NC(=O)c4cn(C)c(C)c(C5CCCC5)c4=O)cc3F)c2nc1OC [Compound 2, 5-Cyclopentyl-N-[4-[(6,7-dimethoxy-1,5-naphthyridin-4-yl)oxy]-3-fluorophenyl]-1,6-dimethyl-4-oxopyridine-3-carboxamide]

- IC50 (Human Met): > 300 nM
- IC50 (Human KDR): > 300 nM
Compound: COc1cc2nccc(Oc3ccc(NC(=O)c4c(C)n(C)c(C)c(C(=O)NC5CC5)c4=O)cc3F)c2nc1OC [Compound 96, 3-N-Cyclopropyl-5-N-[4-[(6,7-dimethoxy-1,5-naphthyridin-4-yl)oxy]-3-fluorophenyl]-1,2,6-trimethyl-4-oxopyridine-3,5-dicarboxamide]
